Source: patent US10407404B2, “Physical form of a SGR modulator” (ASTRAZENECA AB, priority 2016, dated 2019)

Key:
Type in all cases: cell-based
[1] = target: T1, human glucocorticoid receptor (GR) (Homo sapiens, UniProt P04150); assay: GRE Antagonist Assay (ChagoK1 18:7:2 s4/GRE reporter cell line, dexamethasone pre-stimulated); details: ChaGo-K-1, relative to full antagonist effect of Mifepristone (RU486), read-out: TA antagonist Observed max Effect at 1 μM (%)
T1 construct: endogenous in cells; host or cells: ChagoK1 18:7:2 s4/GRE (human bronchogenic carcinoma ChaGo K1, ATCC HTB 168, stably carrying MMTV-GRE-LacZ reporter)
T1 sequence (P04150 1-777): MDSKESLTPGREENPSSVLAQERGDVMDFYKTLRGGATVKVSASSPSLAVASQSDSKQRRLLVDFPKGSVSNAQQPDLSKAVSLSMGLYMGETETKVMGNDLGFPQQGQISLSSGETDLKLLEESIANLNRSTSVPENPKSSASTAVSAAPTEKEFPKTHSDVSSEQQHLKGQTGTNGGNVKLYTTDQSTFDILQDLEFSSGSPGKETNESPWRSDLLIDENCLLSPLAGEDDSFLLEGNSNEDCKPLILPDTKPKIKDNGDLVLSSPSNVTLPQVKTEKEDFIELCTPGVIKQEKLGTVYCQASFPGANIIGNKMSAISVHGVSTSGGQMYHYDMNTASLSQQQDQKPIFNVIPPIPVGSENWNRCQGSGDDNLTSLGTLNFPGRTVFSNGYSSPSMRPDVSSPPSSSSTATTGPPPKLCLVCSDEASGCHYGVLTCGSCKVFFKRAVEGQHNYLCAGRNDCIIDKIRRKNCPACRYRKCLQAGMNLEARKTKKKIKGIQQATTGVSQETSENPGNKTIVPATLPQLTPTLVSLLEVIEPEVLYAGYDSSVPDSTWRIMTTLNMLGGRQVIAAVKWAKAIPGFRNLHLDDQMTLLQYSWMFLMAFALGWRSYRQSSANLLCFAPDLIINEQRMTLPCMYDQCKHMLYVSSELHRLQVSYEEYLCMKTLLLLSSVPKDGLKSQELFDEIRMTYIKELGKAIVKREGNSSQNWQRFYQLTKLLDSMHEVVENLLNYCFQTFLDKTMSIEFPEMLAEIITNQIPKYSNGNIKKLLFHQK
Text: (§1) A reporter cell line (ChagoK1 18:7:2 s4/GRE) was established by stable transfection of the human bronchogenic carcinoma celline, ChaGo K1 (ATCC: HTB 168) with a MMTV-GRE-LacZ reporter construct. The generated cell line allows for identification of compounds showing antagonist activity at the human glucocorticoid receptor (GR) via reduction of LacZ gene expression. Dexamethasone-activated GR binds to the Glucocorticoid Response Element (GRE) in the promoter of the LacZ gene and transcription is initiated. Antagonistic properties of compounds are assessed as beta-galactosidase intensity reduction from pre-stimulation with dexamethasone through a colour reaction (change in absorbance).
Cryo-preserved ChagoK1 18:7:2 s4/GRE cells were suspended in RPMI medium with 10% FBS, 1% NEAA and 1% sodium pyruvate, and seeded as 50000 cells/200 ul/well in 96-well plates and cultured at 37° C. with 5% CO2 and 95% humidity for 24 hr. Cells were pre-stimulated with 2 μl dexamethasone (70 nM final conc) for 4-5 hr, before addition of 1 μl compound at different concentrations and incubation for an additional 24 hr. […] The plates were measured at 420 nm for absorbance in a SpectraMax reader (Molecular Device).
The relative efficacy (% effect) of a compound is calculated based on the full antagonist effect of the reference compound Mifepristone (RU486): % Effect=((Sample abs−min abs)/(max abs−min abs))×100 […]

[2] = target: T1, human glucocorticoid receptor (GR); assay: GRE Agonist Assay (ChagoK1 18:7:2 s4/GRE MMTV-GRE-LacZ reporter cell line)
Text: as §1, with “cell line,” for “celline,”, “agonist” for “antagonist”, “induction” for “reduction”, “Ligand-activated” for “Dexamethasone-activated”, “The resulting” for “Antagonistic properties of compounds are assessed as”, “activity is measured” for “intensity reduction from pre-stimulation with dexamethasone”
Cryo-preserved ChagoK1 18:7:2 s4/GRE cells were suspended in RPMI medium with 10% FBS, 1% NEAA and 1% sodium pyruvate, and seeded as 50000 cells/200 ul/well in 96-well plates and cultured at 37° C. with 5% CO2 and 95% humidity for 24 hours. 1 μl compound was added at different concentrations to the cells and incubated for another 24 hours. Cells were washed once in PBS and lysed with 50 al of 0.1% Triton-X for 10 min at room temperature. […] The plates were measured at 420 nm for absorbance in a SpectraMax reader (Molecular Device).
The relative efficacy (% effect) of a compound is calculated based on the full agonist effect of dexamethasone: % Effect=((Sample abs−min abs)/(max abs−min abs))×100 […]

[3] = tested on: release of TNFα from whole blood stimulated with LPS; assay: In vitro human whole blood: inhibition of TNFα release after LPS stimulation; details: LPS 30 μg/mL, 18 hr, read-out: TNFα pIC50 (converted)
Protocol: The anti-inflammatory activity of compounds and prednisolone was determined in vitro by their ability to inhibit the release of TNFα from whole blood stimulated with LPS. Venous blood from human donors was collected and anti-coagulated with sodium heparin and transferred to a sterile polystyrene round bottomed plate (Corning) at 190 μL per well.
Compounds were prepared from 10 mM stock solutions in dimethylsulfoxide (DMSO, Sigma) by serially diluting 1/3 in DMSO to produce a master plate with the top concentration at 3.33 mM and the lowest concentration at 0.1 μM. Compounds from the master plate were added to the blood at 1 μL/well (1/200) dilution to give final concentrations ranging between […] and 0.5 nM. Control wells received 1 μL DMSO only and the final DMSO concentration in all wells was 0.5%. […]
TNFα protein levels were determined using an AlphaLISA hTNFα kit (Perkin Elmer) according to the manufacturer's instructions. […] The samples were read at 615 nm with excitation at 680 nm using an Envision plate reader. TNFα in the samples was determined by extrapolation from the standard curve and expressed as pg/mL.
The % inhibition of TNFα was determined by the equation: % inhibition=(1−(A−B)/(C−B))×100 Here, A=TNFα in LPS stimulated samples containing compound, B=TNFα in unstimulated samples. and C=TNFα in LPS stimulated samples without compound. […]

[4] = tested on: tyrosine aminotransferase (TAT) mRNA expression; assay: Tyrosine aminotransferase (TAT) mRNA expression in vitro assay in human primary hepatocytes; details: 18 hr, human cryopreserved primary hepatocytes, versus DMSO control, 2^-ΔΔCt, range and n in brackets
Protocol: The impact of test compounds on hyperglycemic events were assessed by looking at changes in mRNA expression of the gene encoding tyrosine aminotransferase (TAT), which is under direct regulation of the glucocorticoid receptor in human hepatocytes.
Human cryopreserved primary hepatocytes (BioreclamationIVT, M00995-P lot EPB) were plated to 24-well collagen I-coated plates (Becton Dickinson, 354408). Cells were allowed to attach for 4 hr before being challenged with test compounds overnight (18 hr). Cells were harvested and total RNA isolated using RNeasy Plus Mini Kit (Qiagen, 74136) followed by cDNA synthesis using High Capacity cDNA reverse transcription kit (Applied Biosystems, 4368813). Real-time RT PCR was performed on an Applied Biosystems 7500 PCR cycler, using Taqman primers for TAT (Life technologies, Hs00356930_ml) and the reference gene hypoxanthine phosphoribosyltransferase 1 (Life technologies, Hs99999909_ml).
Human cryopreserved primary hepatocytes were transferred in to pre-warmed (37° C.) plating medium (BioreclamationIVT, Z990003) and diluted to 0.7×10^6 viable cells/mL. […] Real-time RT PCR was carried out using TaqMan reagents (Life technologies) on the 7500 PCR cycler, and Ct-values for TAT gene expression was normalised to the control gene and expressed as fold change compared to DMSO control using the 2^−ΔΔCt method.

Emax at 1 µM [1] | Emax at 1 µM ([2]; ChaGo-K-1, at 1 μM, relative to full agonist effect of dexamethasone, read-out: TA agonist Observed max Effect at 1 μM (%)) | EC50 ([2]; transactivation, agonist mode, 24 h incubation, read-out: TA agonist pEC50 (converted)) | IC50 [3] | SMILES | Fold Change Tyrosine Aminotransferase Gene Expression Relative to Control (1 μM) [4]
70% | 39% | 12.6 nM | 631 nM | CC(C)[C@H](NC(=O)C(C)(F)F)[C@H](Oc1ccc2c(cnn2-c2ccc(=O)n(C)c2)c1)c1ccccc1 [Example 1, 2,2-difluoro-N-[(1R,2S)-3-methyl-1-{[1-(1-methyl-6-oxo-1,6-dihydropyridin-3-yl)-1H-indazol-5-yl]oxy}-1-phenylbutan-2-yl]propanamide] | –
– | – | – | 316 nM | C[C@]12C=CC(=O)C=C1CC[C@@H]1[C@@H]2[C@@H](O)C[C@@]2(C)[C@H]1CC[C@]2(O)C(=O)CO [Prednisolone, reference compound] | 2.5 (1.4-4.2, n = 8)
